Legend:
[1] = biological target: T1, human mGlu2 (Homo sapiens, UniProt Q14416); assay: mGlu selectivity, thallium flux GIRK assay; assay type: cell-based
T1 construct: expressed in transfected cells
Method: (§1) the presence of 5% CO2, the dye solutions were removed and replaced with assay buffer using a microplate washer, leaving 20 μL of assay buffer in the cell plate. The compound, agonist, and cell plates were placed inside the Functional Drug Screening System (FDSS 7000 or uCell, Hamamatsu, Japan) to measure the calcium flux. Assays were run at 37 °C. A triple add protocol was used to measure Ca kinetics. Briefly, after establishment of a fluorescence baseline for 2 seconds (excitation, 480 nm; emission, 530 nm), 20 µL of test compound was added to the cells and the response was measured for 140 seconds. This was followed by the addition of 10 µL (5X) of an EC20 concentration of Glu agonist, and the response of the cells was measured for 125 seconds. A third addition occurred by adding 12 uL (5X) of an EC80 concentration of Glu agonist and the response of the cells was measured for 90 seconds. […] Calcium fluorescence was recorded as fold over basal fluorescence and raw data were normalized to the maximal response to Glu agonist (ECMax). Compound-evoked decreases in calcium response in the presence of Glu EC80 agonist were determined as inhibition activity, and potency (IC50) and maximum inhibition responses (% GluMin) of compounds were determined using a four-parameter logistical equation using GraphPad Prism (La Jolla, CA) or the Dotmatics software platform (Woburn, MA) : […]
(§2) The mGlu subtype selectivity of compounds was determined using calcium mobilization or thallium flux GIRK (G protein-regulated inwardly rectifying K channel) assays using the stable cell lines expressing the respective mGlu receptors. […]
(§3) at RT using DL-AP4 for the agonist. mGlu8 cells were incubated with dye solution for 50 min at 37 °C in the presence of […] and FDSS assays were run at RT. To measure activity at mGlu2 and mGlu3, HEK293-GIRK cells stably expressing human mGlu2 and mGlu3 were assessed using thallium flux assay through GIRK channels as previously described in detail.3 […]

[2] = biological target: T2, human mGlu3 (Homo sapiens, UniProt Q14832); assay: mGlu selectivity, thallium flux GIRK assay; assay type: cell-based
T2 construct: expressed in transfected cells
T2 sequence (Q14832 23-879): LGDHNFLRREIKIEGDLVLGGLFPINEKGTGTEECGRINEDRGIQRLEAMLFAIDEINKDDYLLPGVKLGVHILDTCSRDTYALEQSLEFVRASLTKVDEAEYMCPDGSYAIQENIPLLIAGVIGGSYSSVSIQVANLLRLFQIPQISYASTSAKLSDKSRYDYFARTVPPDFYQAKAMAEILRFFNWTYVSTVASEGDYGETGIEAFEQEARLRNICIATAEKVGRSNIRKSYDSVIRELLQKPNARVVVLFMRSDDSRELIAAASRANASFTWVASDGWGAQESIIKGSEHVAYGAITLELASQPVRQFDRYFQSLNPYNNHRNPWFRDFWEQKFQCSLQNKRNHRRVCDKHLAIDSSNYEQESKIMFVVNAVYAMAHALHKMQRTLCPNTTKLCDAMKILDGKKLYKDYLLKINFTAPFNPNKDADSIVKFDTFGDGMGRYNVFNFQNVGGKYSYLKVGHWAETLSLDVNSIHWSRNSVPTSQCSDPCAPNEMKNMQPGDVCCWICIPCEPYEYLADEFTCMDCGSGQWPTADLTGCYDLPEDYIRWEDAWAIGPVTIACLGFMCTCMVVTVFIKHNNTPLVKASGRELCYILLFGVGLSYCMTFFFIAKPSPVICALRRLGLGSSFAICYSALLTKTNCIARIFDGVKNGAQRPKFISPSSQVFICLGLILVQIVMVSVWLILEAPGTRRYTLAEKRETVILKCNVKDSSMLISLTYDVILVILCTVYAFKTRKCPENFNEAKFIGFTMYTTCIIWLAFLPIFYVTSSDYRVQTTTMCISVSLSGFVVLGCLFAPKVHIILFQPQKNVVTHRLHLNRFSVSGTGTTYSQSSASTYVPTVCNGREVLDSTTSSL
Method: as §1, §2, §3

[3] = biological target: T3, CYP 2C9 (Homo sapiens, UniProt P11712); assay: P450 inhibition in pooled human liver microsomes; assay type: in vitro ADME; conditions: pooled HLM, NADPH, CYP-specific probe substrates; listed as VU6043653
T3 construct: from tissue; host or cells: pooled human liver microsomes (per the earlier reading)
T3 sequence (P11712 whole entry): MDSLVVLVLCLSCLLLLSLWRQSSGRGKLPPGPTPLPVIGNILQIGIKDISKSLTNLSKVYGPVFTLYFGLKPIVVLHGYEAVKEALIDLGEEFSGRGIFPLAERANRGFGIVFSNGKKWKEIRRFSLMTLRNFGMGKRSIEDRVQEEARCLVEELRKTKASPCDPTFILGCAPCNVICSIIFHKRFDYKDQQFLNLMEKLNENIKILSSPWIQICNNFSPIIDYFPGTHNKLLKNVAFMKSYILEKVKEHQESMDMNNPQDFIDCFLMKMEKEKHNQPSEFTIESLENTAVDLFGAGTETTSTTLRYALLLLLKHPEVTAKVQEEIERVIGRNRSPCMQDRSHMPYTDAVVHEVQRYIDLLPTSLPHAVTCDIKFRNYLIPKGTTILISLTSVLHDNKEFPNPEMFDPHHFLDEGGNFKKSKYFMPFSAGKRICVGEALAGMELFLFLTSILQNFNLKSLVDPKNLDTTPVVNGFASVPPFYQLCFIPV

[4] = IV plasma-brain level determination (PBL) in rat; assay type: in vivo; conditions: male, Sprague-Dawley, brain and plasma, SD rat, 0.2 mg/kg IV
[5] = biological target: Neuropeptide Y Y1 (Homo sapiens, UniProt P25929); assay: Lead Profiling Screen, Eurofins Panlabs; assay type: binding; conditions: Neuropeptide Y Y1, hum, read-out: % inh at 10 μM
Neuropeptide Y Y1, sequence (P25929 whole entry): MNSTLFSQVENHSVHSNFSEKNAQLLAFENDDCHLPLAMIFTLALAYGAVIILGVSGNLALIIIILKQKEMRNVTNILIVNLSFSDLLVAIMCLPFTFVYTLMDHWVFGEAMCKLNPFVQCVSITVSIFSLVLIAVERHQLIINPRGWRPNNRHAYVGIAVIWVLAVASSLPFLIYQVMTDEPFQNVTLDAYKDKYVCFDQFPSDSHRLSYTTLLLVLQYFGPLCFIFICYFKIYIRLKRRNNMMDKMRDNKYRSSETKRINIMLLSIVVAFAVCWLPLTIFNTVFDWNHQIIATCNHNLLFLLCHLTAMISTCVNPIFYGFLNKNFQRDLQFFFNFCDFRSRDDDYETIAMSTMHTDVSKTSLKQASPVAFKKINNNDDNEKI

T1 sequence (Q14416 19-872): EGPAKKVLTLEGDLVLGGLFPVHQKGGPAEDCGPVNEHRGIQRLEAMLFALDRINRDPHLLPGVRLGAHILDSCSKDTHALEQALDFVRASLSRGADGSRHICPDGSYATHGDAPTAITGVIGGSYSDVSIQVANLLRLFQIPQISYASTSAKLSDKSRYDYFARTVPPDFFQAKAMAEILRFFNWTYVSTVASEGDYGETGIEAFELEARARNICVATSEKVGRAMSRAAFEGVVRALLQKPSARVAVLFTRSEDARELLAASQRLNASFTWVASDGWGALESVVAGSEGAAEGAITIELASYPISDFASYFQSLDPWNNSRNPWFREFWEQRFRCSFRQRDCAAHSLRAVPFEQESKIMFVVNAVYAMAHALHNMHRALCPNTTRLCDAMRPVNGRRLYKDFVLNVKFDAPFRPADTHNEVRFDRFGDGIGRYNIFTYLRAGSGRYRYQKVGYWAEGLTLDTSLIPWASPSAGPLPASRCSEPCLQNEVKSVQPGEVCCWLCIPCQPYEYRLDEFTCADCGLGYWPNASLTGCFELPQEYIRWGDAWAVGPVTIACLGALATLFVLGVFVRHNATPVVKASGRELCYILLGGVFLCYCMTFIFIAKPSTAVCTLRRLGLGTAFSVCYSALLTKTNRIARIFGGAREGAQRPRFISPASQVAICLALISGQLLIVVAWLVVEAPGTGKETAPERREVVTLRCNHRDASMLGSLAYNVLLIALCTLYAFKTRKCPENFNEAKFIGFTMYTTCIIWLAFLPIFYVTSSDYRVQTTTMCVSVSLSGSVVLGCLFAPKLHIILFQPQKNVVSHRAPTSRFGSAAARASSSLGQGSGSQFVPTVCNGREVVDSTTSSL

For Cc1cc(Oc2cnn(C)c2)cc(C(=O)Nc2ccc(F)cn2)n1 [22iA], the “IC50, human mGlu2” value [1] was “inactive”, the “%GluMin, human mGlu3” value [2] was “[58] %” and the IC50 [2] was > 10 µM. The IC50 [3] was ≥ 30 µM, the Kp at 0.25 h ([4]; total brain-to-plasma partition ratio) was 1.68 and the Kp uu at 0.25 h ([4]; unbound brain-to-plasma partition ratio) was 0.34. It also gave an inhibition at 10 µM [5] of -2%.
